Assay results published in US9938269B2, “Inhibitor compounds of phosphodiesterase type 10A” (ABBVIE INC., priority 2011, dated 2018).

molecular target: T1, PDE10A (human) (Homo sapiens, UniProt Q9Y233); experiment: Measurement of PDE activity (HTRF cAMP kit), human PDE10A; assay type: biochemical; conditions: PDE enzymatic reaction, substrate 20 nM for PDE10, 60 minutes at 29 C
T1 construct: purchased BPS Bioscience
Description: The recombinant PDE proteins are used in in vitro enzymatic reaction for measurement of PDE activity. These recombinant proteins, including PDE10A (human, rat and mouse PDE10) and isoforms of PDEs 1, 3, 4, and 5, were purchased from commercial vendor BPS Bioscience. The enzymatic activity of PDEs was determined by cAMP measurement kit from CisBio (IBA) using HTRF technology.
The PDE enzymatic reaction was carried out in assay buffer (20 mM Tris-HCl pH7.5, 10 mM MgCl2, 0.1% bovine serum albumin) containing enzyme and substrate. The PDE enzymes concentration ranged from 10 pM-250 pM, depending on each enzyme's specific activity. The substrate cyclic nucleotide (cAMP or cGMP) concentration used in the assay was 20 nM for PDE10, and 100 nM for other PDEs. The inhibitory effect of compound was determined by incubating various concentration of inhibitor in the enzymatic assay. Typically, compound was serial diluted in DMSO then further diluted in assay buffer. Next, the compound at varying concentration was mixed with PDE enzyme. The reaction was initiated by addition of cyclic nucleotide substrate, and incubated for 60 minutes at 29 C. The reaction was stopped by addition of lysis buffer from assay kit. The cAMP-d2 and anti-cAMP cryptate in the lysis buffer detected the level of cAMP left from the PDE hydrolysis reaction. The PDE activity is reversely correlated with the amount of cAMP left in the reaction and can be converted to the percent activity of an uninhibited control (100%). Thus, IC50 value of inhibitor can be obtained by plotting inhibitor concentration against PDE activity at that concentration.

T1 sequence (Q9Y233 whole entry): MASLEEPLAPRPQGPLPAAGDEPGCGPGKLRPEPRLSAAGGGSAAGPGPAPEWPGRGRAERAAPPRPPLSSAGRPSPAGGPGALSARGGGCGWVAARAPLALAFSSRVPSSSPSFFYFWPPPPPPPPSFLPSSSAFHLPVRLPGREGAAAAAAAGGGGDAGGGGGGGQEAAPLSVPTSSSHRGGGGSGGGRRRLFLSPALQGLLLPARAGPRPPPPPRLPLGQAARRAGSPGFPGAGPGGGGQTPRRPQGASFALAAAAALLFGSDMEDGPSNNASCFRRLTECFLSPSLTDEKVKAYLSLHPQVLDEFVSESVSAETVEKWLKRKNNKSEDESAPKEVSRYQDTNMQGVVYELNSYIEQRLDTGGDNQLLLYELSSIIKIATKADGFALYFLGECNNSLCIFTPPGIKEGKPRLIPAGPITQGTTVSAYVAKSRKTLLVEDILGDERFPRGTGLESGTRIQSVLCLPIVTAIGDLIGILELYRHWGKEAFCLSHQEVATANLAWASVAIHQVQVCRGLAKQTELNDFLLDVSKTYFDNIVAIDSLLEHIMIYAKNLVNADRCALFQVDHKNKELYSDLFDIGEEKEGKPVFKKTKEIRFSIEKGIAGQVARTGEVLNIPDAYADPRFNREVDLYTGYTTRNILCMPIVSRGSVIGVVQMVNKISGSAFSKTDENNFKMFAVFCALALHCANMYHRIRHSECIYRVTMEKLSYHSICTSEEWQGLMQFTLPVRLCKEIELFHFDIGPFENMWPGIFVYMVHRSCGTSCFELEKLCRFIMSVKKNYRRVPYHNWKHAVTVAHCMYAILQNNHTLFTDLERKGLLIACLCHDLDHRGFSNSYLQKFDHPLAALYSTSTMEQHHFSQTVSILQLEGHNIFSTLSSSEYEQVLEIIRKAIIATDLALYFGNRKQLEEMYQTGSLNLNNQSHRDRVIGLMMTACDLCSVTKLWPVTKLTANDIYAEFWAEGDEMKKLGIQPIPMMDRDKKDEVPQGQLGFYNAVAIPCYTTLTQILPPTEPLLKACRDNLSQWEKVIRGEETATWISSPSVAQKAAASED

| SMILES | IC50 [nM] |
| --- | --- |
| O=C1c2c(ccnc2-c2ccncc2)CN1CCc1ccc2ccccc2n1 [Example 1, 4-Pyridin-4-yl-2-(2-quinolin-2-yl-ethyl)-1,2-dihydro-pyrrolo[3,4-c]pyridin-3-one; compound with trifluoro-acetic acid] | < 100 |
| O=C1c2c(cccc2-c2ccncc2)CN1CCc1ccc2ccccc2n1 [Example 5, 7-Pyridin-4-yl-2-(2-quinolin-2-yl-ethyl)-2,3-dihydro-isoindol-1-one] | < 100 |
| CC1(C)c2cccc(-c3ccncc3)c2C(=O)N1CCc1ccc2ccccc2n1 [Example 6, 3,3-Dimethyl-7-pyridin-4-yl-2-(2-quinolin-2-yl-ethyl)-2,3-dihydro-isoindol-1-one] | 100 to 200 |
| O=C1c2c(cccc2-c2ccncc2)CN1CC(F)(F)c1ccc2ccccc2n1 [Example 13, 2-(2,2-Difluoro-2-quinolin-2-yl-ethyl)-7-pyridin-4-yl-2,3-dihydro-isoindol-1-one] | < 100 |
| O=C1c2c(-c3ccncc3)ccc(F)c2CN1CCc1ccc2ccccc2n1 [Example 16, 4-Fluoro-7-pyridin-4-yl-2-(2-quinolin-2-yl-ethyl)-2,3-dihydro-isoindol-1-one] | < 100 |
| Cn1c2cccc(-c3ccncc3)c2c(=O)n1CCc1ccc2ccccc2n1 [Example 17, 1-Methyl-4-(pyridin-4-yl)-2-(2-(quinolin-2-yl)ethyl)-1,2-dihydroindazol-3-one] | < 100 |
| O=c1c2c(-c3ccncc3)cccc2on1CCc1ccc2ccccc2n1 [Example 18, 4-Pyridin-4-yl-2-(2-quinolin-2-yl-ethyl)-benzo[d]isoxazol-3-one] | < 100 |
| O=C1c2c(cccc2-c2ccccc2)CN1CCc1ccc2ccccc2n1 [Example 21, 7-Phenyl-2-(2-quinolin-2-yl-ethyl)-2,3-dihydro-isoindol-1-one] | 100 to 200 |
| O=C1c2c(cccc2-c2ccc(F)cc2)CN1CCc1ccc2ccccc2n1 [Example 22, 7-(4-Fluoro-phenyl)-2-(2-quinolin-2-yl-ethyl)-2,3-dihydro-isoindol-1-one] | < 100 |
| COc1ccc(-c2cccc3c2C(=O)N(CCc2ccc4ccccc4n2)C3)cc1 [Example 23, 7-(4-Methoxy-phenyl)-2-(2-quinolin-2-yl-ethyl)-2,3-dihydro-isoindol-1-one] | < 100 |
| O=C1c2c(cccc2-c2ccsc2)CN1CCc1ccc2ccccc2n1 [Example 25, 2-(2-Quinolin-2-yl-ethyl)-7-thiophen-3-yl-2,3-dihydro-isoindol-1-one] | 100 to 200 |
| O=C1c2c(cccc2-c2cccc(F)c2)CN1CCc1ccc2ccccc2n1 [Example 27, 7-(3-Fluoro-phenyl)-2-(2-quinolin-2-yl-ethyl)-2,3-dihydro-isoindol-1-one] | 100 to 200 |
| O=C1c2c(cccc2-c2ccccc2F)CN1CCc1ccc2ccccc2n1 [Example 29, 7-(2-Fluoro-phenyl)-2-(2-quinolin-2-yl-ethyl)-2,3-dihydro-isoindol-1-one] | 100 to 200 |
| O=C1c2c(cccc2-c2cccnc2)CN1CCc1ccc2ccccc2n1 [Example 30, 7-Pyridin-3-yl-2-(2-quinolin-2-yl-ethyl)-2,3-dihydro-isoindol-1-one] | < 100 |
| O=C1c2c(cccc2-c2ccco2)CN1CCc1ccc2ccccc2n1 [Example 31, 7-Furan-2-yl-2-(2-quinolin-2-yl-ethyl)-2,3-dihydro-isoindol-1-one] | 200 to 500 |
| COc1ccc(-c2cccc3c2C(=O)N(CCc2ccc4ccccc4n2)C3)cc1F [Example 32, 7-(3-Fluoro-4-methoxy-phenyl)-2-(2-quinolin-2-yl-ethyl)-2,3-dihydro-isoindol-1-one] | 200 to 500 |
| O=C1c2c(cccc2-c2ccc(F)c(F)c2)CN1CCc1ccc2ccccc2n1 [Example 33, 7-(3,4-Difluoro-phenyl)-2-(2-quinolin-2-yl-ethyl)-2,3-dihydro-isoindol-1-one] | 200 to 500 |
| O=C1c2c(cccc2-c2ccc3c(c2)OCO3)CN1CCc1ccc2ccccc2n1 [Example 34, 7-Benzo[1,3]dioxol-5-yl-2-(2-quinolin-2-yl-ethyl)-2,3-dihydro-isoindol-1-one] | 100 to 200 |
| CN(C)c1cccc(-c2cccc3c2C(=O)N(CCc2ccc4ccccc4n2)C3)c1 [Example 43, 7-(3-Dimethylamino-phenyl)-2-(2-quinolin-2-yl-ethyl)-2,3-dihydro-isoindol-1-one] | 200 to 500 |
| O=C1c2c(cccc2-c2ccc(F)cc2F)CN1CCc1ccc2ccccc2n1 [Example 45, 7-(2,4-Difluoro-phenyl)-2-(2-quinolin-2-yl-ethyl)-2,3-dihydro-isoindol-1-one] | 100 to 200 |

| SMILES | IC50 [nM] |
| --- | --- |
| O=C1c2c(cccc2-c2ccoc2)CN1CCc1ccc2ccccc2n1 [Example 46, 7-Furan-3-yl-2-(2-quinolin-2-yl-ethyl)-2,3-dihydro-isoindol-1-one] | < 100 |
| O=C1c2c(cccc2-c2cccc(F)c2F)CN1CCc1ccc2ccccc2n1 [Example 50, 7-(2,3-Difluoro-phenyl)-2-(2-quinolin-2-yl-ethyl)-2,3-dihydro-isoindol-1-one] | 200 to 500 |
| O=C1c2c(cccc2-c2cc(F)ccc2F)CN1CCc1ccc2ccccc2n1 [Example 51, 7-(2,5-Difluoro-phenyl)-2-(2-quinolin-2-yl-ethyl)-2,3-dihydro-isoindol-1-one] | 200 to 500 |
| O=C1c2c(cccc2-c2cc[nH]n2)CN1CCc1ccc2ccccc2n1 [Example 53, 7-(1H-Pyrazol-3-yl)-2-(2-quinolin-2-yl-ethyl)-2,3-dihydro-isoindol-1-one] | 100 to 200 |
| O=C1c2c(cccc2-c2ccc3c(c2)CCO3)CN1CCc1ccc2ccccc2n1 [Example 56, 7-(2,3-Dihydro-benzofuran-5-yl)-2-(2-quinolin-2-yl-ethyl)-2,3-dihydro-isoindol-1-one] | 200 to 500 |
| COc1ncc(-c2cccc3c2C(=O)N(CCc2ccc4ccccc4n2)C3)cn1 [Example 61, 7-(2-Methoxy-pyrimidin-5-yl)-2-(2-quinolin-2-yl-ethyl)-2,3-dihydro-isoindol-1-one] | 100 to 200 |
| O=C1c2c(cccc2-c2ccc3cc[nH]c3c2)CN1CCc1ccc2ccccc2n1 [Example 64, 7-(1H-Indol-6-yl)-2-(2-quinolin-2-yl-ethyl)-2,3-dihydro-isoindol-1-one] | < 100 |
| Cc1cc(-c2cccc3c2C(=O)N(CCc2ccc4ccccc4n2)C3)ccn1 [Example 65, 7-(2-Methyl-pyridin-4-yl)-2-(2-quinolin-2-yl-ethyl)-2,3-dihydro-isoindol-1-one] | < 100 |
| Cn1cc(-c2cccc3c2C(=O)N(CCc2ccc4ccccc4n2)C3)cn1 [Example 70, 7-(1-Methyl-1H-pyrazol-4-yl)-2-(2-quinolin-2-yl-ethyl)-2,3-dihydro-isoindol-1-one] | 100 to 200 |
| O=C1c2c(cccc2-c2ccc3occc3c2)CN1CCc1ccc2ccccc2n1 [Example 72, 7-Benzofuran-5-yl-2-(2-quinolin-2-yl-ethyl)-2,3-dihydro-isoindol-1-one] | 200 to 500 |
| Cc1cscc1-c1cccc2c1C(=O)N(CCc1ccc3ccccc3n1)C2 [Example 73, 7-(4-Methyl-thiophen-3-yl)-2-(2-quinolin-2-yl-ethyl)-2,3-dihydro-isoindol-1-one] | 200 to 500 |
| Cn1nccc1-c1cccc2c1C(=O)N(CCc1ccc3ccccc3n1)C2 [Example 74, 7-(2-Methyl-2H-pyrazol-3-yl)-2-(2-quinolin-2-yl-ethyl)-2,3-dihydro-isoindol-1-one] | < 100 |
| O=C1c2c(cccc2-c2ccc3ncccc3c2)CN1CCc1ccc2ccccc2n1 [Example 75, 7-Quinolin-6-yl-2-(2-quinolin-2-yl-ethyl)-2,3-dihydro-isoindol-1-one] | < 100 |
| O=C1c2c(cccc2-c2cncc(F)c2)CN1CCc1ccc2ccccc2n1 [Example 77, 7-(5-Fluoro-pyridin-3-yl)-2-(2-quinolin-2-yl-ethyl)-2,3-dihydro-isoindol-1-one] | < 100 |
| O=C1c2c(cccc2-c2cn[nH]c2)CN1CCc1ccc2ccccc2n1 [Example 78, 7-(1H-Pyrazol-4-yl)-2-(2-quinolin-2-yl-ethyl)-2,3-dihydro-isoindol-1-one] | < 100 |
| O=C1c2c(cccc2-c2nccs2)CN1CCc1ccc2ccccc2n1 [Example 82, 2-(2-Quinolin-2-yl-ethyl)-7-thiazol-2-yl-2,3-dihydro-isoindol-1-one] | 200 to 500 |
| O=C1c2c(cccc2-c2cnc[nH]2)CN1CCc1ccc2ccccc2n1 [Example 84, 7-(3H-Imidazol-4-yl)-2-(2-quinolin-2-yl-ethyl)-2,3-dihydro-isoindol-1-one] | < 100 |
| O=C1c2c(cccc2-c2ccc(F)cn2)CN1CCc1ccc2ccccc2n1 [Example 88, 7-(5-Fluoro-pyridin-2-yl)-2-(2-quinolin-2-yl-ethyl)-2,3-dihydro-isoindol-1-one] | 200 to 500 |
| O=C1c2c(cccc2-c2ccc3[nH]ncc3c2)CN1CCc1ccc2ccccc2n1 [Example 93, 7-(1H-Indazol-5-yl)-2-(2-quinolin-2-yl-ethyl)-2,3-dihydro-isoindol-1-one] | 200 to 500 |
| Cn1cncc1-c1cccc2c1C(=O)N(CCc1ccc3ccccc3n1)C2 [Example 94, 7-(3-Methyl-3H-imidazol-4-yl)-2-(2-quinolin-2-yl-ethyl)-2,3-dihydro-isoindol-1-one] | 200 to 500 |
